# Source: publication PMC12586182 (Frontiers in Oncology, 2025)
# Assays:
# Experiment in all cases: Kinase panel profiling at 1 µmol/L (mobility shift assay, Carna)
# Type in all cases: biochemical
# Conditions in all cases: 1 µmol/L of BTK inhibitor
# ROCK2 = molecular target: T1, ROCK2 (Homo sapiens, UniProt O75116)
# T1 construct: purchased Carna Biosciences
# AMPKα2/β1/γ1 = molecular target: T2, AMPKα2/β1/γ1 (Homo sapiens, UniProt P54646)
# T2 construct: purchased Carna Biosciences
# AKT2 = molecular target: T3, AKT2 (Homo sapiens, UniProt P31751)
# T3 construct: purchased Carna Biosciences
# T3 sequence (P31751 whole entry): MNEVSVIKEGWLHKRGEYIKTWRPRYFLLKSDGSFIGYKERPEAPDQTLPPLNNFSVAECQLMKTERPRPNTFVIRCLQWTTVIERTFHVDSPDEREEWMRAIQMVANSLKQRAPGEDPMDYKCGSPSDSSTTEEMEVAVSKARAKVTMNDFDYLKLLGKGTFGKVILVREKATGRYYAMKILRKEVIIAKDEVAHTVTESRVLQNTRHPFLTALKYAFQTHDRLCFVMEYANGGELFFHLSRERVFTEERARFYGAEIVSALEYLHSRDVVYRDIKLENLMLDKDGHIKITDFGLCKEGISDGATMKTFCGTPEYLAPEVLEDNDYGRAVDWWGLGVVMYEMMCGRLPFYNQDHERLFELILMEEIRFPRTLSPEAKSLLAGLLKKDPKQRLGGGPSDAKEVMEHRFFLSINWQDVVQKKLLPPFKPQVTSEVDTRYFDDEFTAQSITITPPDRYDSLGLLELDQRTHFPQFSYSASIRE
# p38β = molecular target: T4, p38β (Homo sapiens, UniProt Q15759)
# T4 construct: purchased Carna Biosciences
# T4 sequence (Q15759 whole entry): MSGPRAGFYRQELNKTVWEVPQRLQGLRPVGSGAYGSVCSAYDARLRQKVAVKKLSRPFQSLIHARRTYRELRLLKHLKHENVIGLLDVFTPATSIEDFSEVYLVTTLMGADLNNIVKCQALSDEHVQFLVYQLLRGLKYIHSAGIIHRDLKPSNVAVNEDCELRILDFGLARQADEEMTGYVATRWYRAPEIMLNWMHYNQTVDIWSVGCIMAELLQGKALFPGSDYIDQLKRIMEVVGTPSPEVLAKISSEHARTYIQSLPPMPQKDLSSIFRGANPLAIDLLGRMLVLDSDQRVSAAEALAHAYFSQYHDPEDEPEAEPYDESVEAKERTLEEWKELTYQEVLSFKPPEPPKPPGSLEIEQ
# CGK2 = molecular target: T5, CGK2 (Homo sapiens, UniProt Q13237)
# T5 construct: purchased Carna Biosciences
# T5 sequence (Q13237 1-762): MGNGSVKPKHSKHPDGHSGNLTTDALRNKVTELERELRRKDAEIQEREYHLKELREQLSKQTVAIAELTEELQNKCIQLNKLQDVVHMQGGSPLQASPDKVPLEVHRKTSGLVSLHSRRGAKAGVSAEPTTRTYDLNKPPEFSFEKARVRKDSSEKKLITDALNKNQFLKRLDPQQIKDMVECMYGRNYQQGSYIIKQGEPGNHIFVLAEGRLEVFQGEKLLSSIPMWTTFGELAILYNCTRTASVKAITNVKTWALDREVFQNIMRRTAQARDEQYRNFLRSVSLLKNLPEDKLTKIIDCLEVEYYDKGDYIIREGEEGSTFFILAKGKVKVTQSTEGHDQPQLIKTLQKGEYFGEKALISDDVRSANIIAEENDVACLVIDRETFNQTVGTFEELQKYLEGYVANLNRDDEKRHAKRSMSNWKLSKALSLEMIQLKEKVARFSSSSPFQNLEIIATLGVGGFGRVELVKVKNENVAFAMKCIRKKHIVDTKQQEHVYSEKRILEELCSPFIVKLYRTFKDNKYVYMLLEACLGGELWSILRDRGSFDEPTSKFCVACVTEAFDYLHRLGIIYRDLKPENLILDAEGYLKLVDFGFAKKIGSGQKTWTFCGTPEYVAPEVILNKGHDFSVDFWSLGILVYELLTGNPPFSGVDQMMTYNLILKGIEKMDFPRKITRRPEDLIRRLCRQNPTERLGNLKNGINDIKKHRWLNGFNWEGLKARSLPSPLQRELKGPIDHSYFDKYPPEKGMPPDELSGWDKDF
# SPHK1 = molecular target: T6, SPHK1 (Homo sapiens, UniProt Q9NYA1)
# T6 construct: purchased Carna Biosciences
# T6 sequence (Q9NYA1 whole entry): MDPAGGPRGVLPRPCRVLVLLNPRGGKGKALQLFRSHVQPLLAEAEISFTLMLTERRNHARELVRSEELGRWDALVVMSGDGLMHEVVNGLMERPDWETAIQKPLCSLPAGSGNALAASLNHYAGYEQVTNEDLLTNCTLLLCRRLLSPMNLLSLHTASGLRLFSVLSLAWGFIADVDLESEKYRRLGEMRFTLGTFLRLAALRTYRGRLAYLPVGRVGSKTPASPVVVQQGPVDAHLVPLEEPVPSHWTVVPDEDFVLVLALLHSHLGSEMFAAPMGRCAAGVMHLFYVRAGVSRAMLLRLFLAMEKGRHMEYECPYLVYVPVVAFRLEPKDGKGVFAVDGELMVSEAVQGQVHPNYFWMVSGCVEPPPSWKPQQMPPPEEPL
# DYRK2 = molecular target: T7, DYRK2 (Homo sapiens, UniProt Q92630)
# T7 construct: purchased Carna Biosciences
# T7 sequence (Q92630 1-601): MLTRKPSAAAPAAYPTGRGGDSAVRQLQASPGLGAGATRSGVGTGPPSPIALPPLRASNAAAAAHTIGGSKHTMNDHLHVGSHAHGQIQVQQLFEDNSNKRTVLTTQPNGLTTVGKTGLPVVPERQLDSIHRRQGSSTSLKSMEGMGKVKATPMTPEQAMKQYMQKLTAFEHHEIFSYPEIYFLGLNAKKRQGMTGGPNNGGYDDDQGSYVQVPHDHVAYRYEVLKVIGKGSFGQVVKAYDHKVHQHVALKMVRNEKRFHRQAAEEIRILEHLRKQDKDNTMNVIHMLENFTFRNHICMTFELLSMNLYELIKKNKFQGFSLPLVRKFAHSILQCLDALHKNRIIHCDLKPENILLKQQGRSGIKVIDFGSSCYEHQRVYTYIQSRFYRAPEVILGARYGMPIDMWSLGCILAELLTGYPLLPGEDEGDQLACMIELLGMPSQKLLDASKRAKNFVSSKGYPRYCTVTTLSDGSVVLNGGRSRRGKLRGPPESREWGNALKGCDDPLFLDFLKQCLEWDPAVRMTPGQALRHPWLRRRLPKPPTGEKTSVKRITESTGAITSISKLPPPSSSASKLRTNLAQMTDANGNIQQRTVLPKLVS
# AKT3 = molecular target: T8, AKT3 (Homo sapiens, UniProt Q9Y243)
# T8 construct: purchased Carna Biosciences
# T8 sequence (Q9Y243 whole entry): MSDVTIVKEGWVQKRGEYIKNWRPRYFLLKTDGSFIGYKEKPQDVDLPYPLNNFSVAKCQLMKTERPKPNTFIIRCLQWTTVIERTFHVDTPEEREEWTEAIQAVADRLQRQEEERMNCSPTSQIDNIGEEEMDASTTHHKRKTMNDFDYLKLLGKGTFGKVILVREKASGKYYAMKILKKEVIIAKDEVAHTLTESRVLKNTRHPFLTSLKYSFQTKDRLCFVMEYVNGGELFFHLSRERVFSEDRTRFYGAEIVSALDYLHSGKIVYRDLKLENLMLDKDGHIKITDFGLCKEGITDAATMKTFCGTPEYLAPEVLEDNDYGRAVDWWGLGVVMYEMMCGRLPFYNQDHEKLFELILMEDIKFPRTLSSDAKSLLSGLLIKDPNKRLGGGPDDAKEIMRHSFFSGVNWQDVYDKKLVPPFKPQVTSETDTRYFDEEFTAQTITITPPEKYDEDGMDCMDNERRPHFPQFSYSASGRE
# PKD1 = molecular target: T9, PKD1 (Homo sapiens, UniProt Q15139)
# T9 construct: purchased Carna Biosciences
# T9 sequence (Q15139 1-912): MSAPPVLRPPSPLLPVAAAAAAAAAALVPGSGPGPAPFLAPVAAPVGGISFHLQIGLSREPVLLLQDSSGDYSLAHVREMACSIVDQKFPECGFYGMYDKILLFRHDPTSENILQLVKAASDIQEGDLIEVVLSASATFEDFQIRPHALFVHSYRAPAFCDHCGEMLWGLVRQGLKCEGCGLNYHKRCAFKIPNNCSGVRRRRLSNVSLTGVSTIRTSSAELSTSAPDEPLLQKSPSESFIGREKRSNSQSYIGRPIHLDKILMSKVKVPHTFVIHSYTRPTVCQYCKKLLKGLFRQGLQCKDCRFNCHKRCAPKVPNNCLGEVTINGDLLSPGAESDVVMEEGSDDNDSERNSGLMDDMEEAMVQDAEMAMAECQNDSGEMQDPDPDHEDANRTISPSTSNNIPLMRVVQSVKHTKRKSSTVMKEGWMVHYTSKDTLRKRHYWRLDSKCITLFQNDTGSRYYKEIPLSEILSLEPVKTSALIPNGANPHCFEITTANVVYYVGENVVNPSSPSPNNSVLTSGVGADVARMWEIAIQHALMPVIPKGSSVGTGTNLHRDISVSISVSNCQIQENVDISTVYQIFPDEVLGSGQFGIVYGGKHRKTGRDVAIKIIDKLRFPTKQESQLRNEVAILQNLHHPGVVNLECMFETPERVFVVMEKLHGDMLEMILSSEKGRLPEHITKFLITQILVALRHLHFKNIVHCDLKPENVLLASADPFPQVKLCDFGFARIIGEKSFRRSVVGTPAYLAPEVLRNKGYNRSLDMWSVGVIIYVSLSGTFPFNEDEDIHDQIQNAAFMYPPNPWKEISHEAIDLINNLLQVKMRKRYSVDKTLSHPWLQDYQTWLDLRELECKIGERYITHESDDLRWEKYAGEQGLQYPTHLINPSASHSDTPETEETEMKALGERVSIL
# T1 sequence (O75116 whole entry): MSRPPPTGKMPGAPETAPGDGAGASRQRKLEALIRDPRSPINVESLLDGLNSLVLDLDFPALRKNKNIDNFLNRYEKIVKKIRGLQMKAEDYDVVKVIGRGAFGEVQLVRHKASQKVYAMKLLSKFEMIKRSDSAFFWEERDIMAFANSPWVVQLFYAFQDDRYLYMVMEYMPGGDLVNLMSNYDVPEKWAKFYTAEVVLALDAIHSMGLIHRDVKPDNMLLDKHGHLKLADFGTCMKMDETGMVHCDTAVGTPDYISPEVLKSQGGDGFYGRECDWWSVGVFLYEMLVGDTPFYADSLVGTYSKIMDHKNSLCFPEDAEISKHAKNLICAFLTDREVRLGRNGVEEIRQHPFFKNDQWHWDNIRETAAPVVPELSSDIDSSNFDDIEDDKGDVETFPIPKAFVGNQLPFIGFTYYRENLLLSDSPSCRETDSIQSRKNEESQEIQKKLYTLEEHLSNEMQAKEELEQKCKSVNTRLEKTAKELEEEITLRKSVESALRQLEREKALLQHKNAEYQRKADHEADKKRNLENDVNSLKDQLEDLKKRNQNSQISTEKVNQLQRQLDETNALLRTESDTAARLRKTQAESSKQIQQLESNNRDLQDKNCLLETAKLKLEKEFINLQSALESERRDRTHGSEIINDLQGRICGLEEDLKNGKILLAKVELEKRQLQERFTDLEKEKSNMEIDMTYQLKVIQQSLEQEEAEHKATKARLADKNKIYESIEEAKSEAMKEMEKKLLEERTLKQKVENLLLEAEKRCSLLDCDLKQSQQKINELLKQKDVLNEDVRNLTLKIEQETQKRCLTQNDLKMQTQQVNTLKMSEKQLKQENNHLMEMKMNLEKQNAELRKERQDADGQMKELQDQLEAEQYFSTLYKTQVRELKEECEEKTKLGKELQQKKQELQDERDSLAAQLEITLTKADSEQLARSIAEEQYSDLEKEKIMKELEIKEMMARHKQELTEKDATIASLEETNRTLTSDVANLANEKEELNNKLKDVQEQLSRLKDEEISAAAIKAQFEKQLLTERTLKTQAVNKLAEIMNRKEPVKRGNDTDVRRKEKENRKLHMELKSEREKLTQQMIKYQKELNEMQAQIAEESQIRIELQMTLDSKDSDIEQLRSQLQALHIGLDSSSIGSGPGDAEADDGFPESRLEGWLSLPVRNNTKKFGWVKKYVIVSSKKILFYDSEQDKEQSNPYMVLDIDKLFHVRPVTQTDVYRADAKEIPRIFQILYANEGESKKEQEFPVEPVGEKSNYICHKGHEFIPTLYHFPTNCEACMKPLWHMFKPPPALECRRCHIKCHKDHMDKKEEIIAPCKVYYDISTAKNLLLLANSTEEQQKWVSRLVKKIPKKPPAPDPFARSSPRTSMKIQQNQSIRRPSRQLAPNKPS
# T2 sequence (P54646 whole entry): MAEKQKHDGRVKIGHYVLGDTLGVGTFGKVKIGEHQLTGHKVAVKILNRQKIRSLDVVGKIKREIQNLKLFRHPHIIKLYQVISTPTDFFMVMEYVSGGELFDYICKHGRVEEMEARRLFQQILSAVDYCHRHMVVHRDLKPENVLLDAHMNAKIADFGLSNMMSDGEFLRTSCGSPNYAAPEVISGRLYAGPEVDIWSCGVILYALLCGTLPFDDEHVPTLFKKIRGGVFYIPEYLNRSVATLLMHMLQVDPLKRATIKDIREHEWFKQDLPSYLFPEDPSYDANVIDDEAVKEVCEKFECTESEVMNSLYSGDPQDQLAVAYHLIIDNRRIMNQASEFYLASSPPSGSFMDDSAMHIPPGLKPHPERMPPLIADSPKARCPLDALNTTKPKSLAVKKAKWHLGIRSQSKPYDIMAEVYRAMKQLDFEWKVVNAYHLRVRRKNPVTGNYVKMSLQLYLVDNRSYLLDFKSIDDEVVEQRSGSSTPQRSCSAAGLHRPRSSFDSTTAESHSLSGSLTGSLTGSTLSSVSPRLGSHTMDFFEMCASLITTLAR
# T2 sequence (Q9Y478 whole entry partner): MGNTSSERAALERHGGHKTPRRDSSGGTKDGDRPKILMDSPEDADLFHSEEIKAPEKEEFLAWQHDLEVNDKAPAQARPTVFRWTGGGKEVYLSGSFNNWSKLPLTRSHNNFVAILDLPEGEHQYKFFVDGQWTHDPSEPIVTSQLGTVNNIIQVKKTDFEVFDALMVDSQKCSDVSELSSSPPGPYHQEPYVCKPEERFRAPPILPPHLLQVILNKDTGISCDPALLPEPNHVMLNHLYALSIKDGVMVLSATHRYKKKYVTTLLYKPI
# T2 sequence (P54619 whole entry partner): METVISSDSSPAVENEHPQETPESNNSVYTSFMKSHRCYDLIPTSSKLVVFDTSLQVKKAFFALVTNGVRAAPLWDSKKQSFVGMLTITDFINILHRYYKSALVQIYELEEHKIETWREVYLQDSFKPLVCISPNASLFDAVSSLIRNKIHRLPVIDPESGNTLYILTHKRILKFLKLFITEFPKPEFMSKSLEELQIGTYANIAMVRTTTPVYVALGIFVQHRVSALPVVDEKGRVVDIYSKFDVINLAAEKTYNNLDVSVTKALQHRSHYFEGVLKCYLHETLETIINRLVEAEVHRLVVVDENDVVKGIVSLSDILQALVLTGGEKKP
Structure (SMILES),Percentage inhibition of kinase enzyme activity (ROCK2) [%],Percentage inhibition of kinase enzyme activity (AMPKα2/β1/γ1) [%],Percentage inhibition of kinase enzyme activity (AKT2) [%],Percentage inhibition of kinase enzyme activity (p38β) [%],Percentage inhibition of kinase enzyme activity (CGK2) [%],Percentage inhibition of kinase enzyme activity (SPHK1) [%],Percentage inhibition of kinase enzyme activity (DYRK2) [%],Percentage inhibition of kinase enzyme activity (AKT3) [%],Percentage inhibition of kinase enzyme activity (PKD1) [%]
O=C(c1ccc(Oc2ccccc2)cc1Cl)c1c[nH]c2ncnc(N[C@@H]3CC[C@@H](CO)OC3)c12 [nemtabrutinib],15.55,40.46,4.40,12.08,-1.75,-5.57,-2.66,9.45,7.45
CC#CC(=O)N1CCC[C@H]1c1nc(-c2ccc(C(=O)Nc3ccccn3)cc2)c2c(N)nccn12 [acalabrutinib],-2.29,3.50,-2.69,-3.08,1.55,-3.15,-16.01,-4.92,-9.48
COc1ccc(F)cc1C(=O)NCc1ccc(-c2nn([C@@H](C)C(F)(F)F)c(N)c2C(N)=O)cc1 [pirtobrutinib],1.18,6.23,-4.63,2.61,-1.75,-10.15,-4.14,-2.20,4.89
C=CC(=O)N1CCC[C@@H](n2nc(-c3ccc(Oc4ccccc4)cc3)c3c(N)ncnc32)C1 [ibrutinib],3.74,10.21,-3.12,9.06,-1.77,-3.38,-1.83,-2.25,3.22
